From the OligoGym collection
After the bases stand the sugars from the 5' end (letter, count) and the backbone: PS all phosphorothioate, else s phosphorothioate and o phosphodiester by linkage. Methylation of C is not given here. e = 2'-O-(2-methoxyethyl) (MOE); k = constrained ethyl (cEt); d = 2'-deoxy (DNA); m = 2'-O-methyl

Molecular target: HSD17B13
Conditions: ASO, HepaRG

ACTTTTAGGGAGGTAG (sugars k3 d10 k3, PS)
target mRNA inhibition (1 µM): 20%

TTGATCTCTTAGCTGT (sugars k3 d10 k3, PS)
target mRNA inhibition (1 µM): 74%

GCATCTTAAGATACCC (sugars k3 d10 k3, PS)
target mRNA inhibition (0.02 µM): 16% | target mRNA inhibition (0.078 µM): 45% | target mRNA inhibition (0.313 µM): 82% | target mRNA inhibition (1 µM): 82% | target mRNA inhibition (1.25 µM): 89% | target mRNA inhibition (5 µM): 97%

ACTGTATTAAGACAGT (sugars k3 d10 k3, PS)
target mRNA inhibition (1 µM): 20%

TCCATTGAATCTTCAA (sugars k3 d10 k3, PS)
target mRNA inhibition (1 µM): 57%

ACATATACAGACTAAG (sugars k3 d10 k3, PS)
target mRNA inhibition (1 µM): 46%

GCTACAGATTGGAATG (sugars k3 d10 k3, PS)
target mRNA inhibition (1 µM): 47%

TTATGTGATTGAGTTC (sugars k3 d1 m1 d8 k3, PS)
target mRNA inhibition (1 µM): 35%

TTAAUGCCACCCTACC (sugars k3 d1 m1 d8 k3, PS)
target mRNA inhibition (1 µM): 8%

CTATTATGCACTCTAT (sugars k3 d10 k3, PS)
target mRNA inhibition (1 µM): 32%

GTAAATTCTTGCTATC (sugars k3 d10 k3, PS)
target mRNA inhibition (1 µM): 40%

CCTAAACAAACACTAT (sugars k3 d10 k3, PS)
target mRNA inhibition (1 µM): 8%

AAGTTTTTAAGAGGCA (sugars k3 d10 k3, PS)
target mRNA inhibition (0.02 µM): 0% | target mRNA inhibition (0.078 µM): 0% | target mRNA inhibition (0.313 µM): 43% | target mRNA inhibition (1 µM): 77% | target mRNA inhibition (1.25 µM): 73% | target mRNA inhibition (5 µM): 96%

TATCTTATAAGACTAT (sugars k3 d10 k3, PS)
target mRNA inhibition (1 µM): 43%

GAATAGTCTTCAGCAA (sugars k3 d10 k3, PS)
target mRNA inhibition (1 µM): 51%

TGTGUTCTTGTTGATA (sugars k3 d1 m1 d8 k3, PS)
target mRNA inhibition (1 µM): 41%

CACAAGCACACTGTAA (sugars k3 d10 k3, PS)
target mRNA inhibition (1 µM): 2%

TGTGTAGTCCTAGGGA (sugars k3 d10 k3, PS)
target mRNA inhibition (1 µM): 50%

GATAUTCTGTGGCATG (sugars k3 d1 m1 d8 k3, PS)
target mRNA inhibition (1 µM): 60%

CTAATAACTACATGAC (sugars k3 d10 k3, PS)
target mRNA inhibition (1 µM): 18%

AATCACAAGTAAGGTA (sugars kkdddddddddkekek, PS)
target mRNA inhibition (1 µM): 59%

CGCACACTGAAGCCAC (sugars k3 d10 k3, PS)
target mRNA inhibition (1 µM): 56%

GATGCTCCATAATAAT (sugars k3 d9 k3 e1, PS)
target mRNA inhibition (1 µM): 15%

CTTAUGTAATAGCCAG (sugars k3 d1 m1 d8 k3, PS)
target mRNA inhibition (0.02 µM): 0% | target mRNA inhibition (0.078 µM): 0% | target mRNA inhibition (0.313 µM): 34% | target mRNA inhibition (1 µM): 75% | target mRNA inhibition (1.25 µM): 65% | target mRNA inhibition (5 µM): 91%

GTACTATAGTATTTAC (sugars k3 d10 k3, PS)
target mRNA inhibition (1 µM): 27%

CTCAAATGTCTTGGTA (sugars k3 d10 k3, PS)
target mRNA inhibition (1 µM): 29%

GCCTTGAATAGCAAGC (sugars kkdddddddddkekek, PS)
target mRNA inhibition (1 µM): 16%

TGTCTAAACATCTCTG (sugars k3 d10 k3, PS)
target mRNA inhibition (1 µM): 58%

AATGTATGAGGTCTCC (sugars k3 d10 k3, PS)
target mRNA inhibition (1 µM): 65%

CCTGAAAAGCCCTATT (sugars k3 d10 k3, PS)
target mRNA inhibition (1 µM): 0%

CCGTTATAAGTTTCAT (sugars k3 d10 k3, PS)
target mRNA inhibition (1 µM): 54%

ACTAATATTGAGGCAC (sugars k3 d1 m1 d8 k3, PS)
target mRNA inhibition (1 µM): 42%

ATAAAAATTGGCCTCC (sugars k3 d10 k3, PS)
target mRNA inhibition (1 µM): 41%

TACAGGCCATAATCTT (sugars k3 d10 k3, PS)
target mRNA inhibition (1 µM): 16%

ATACATCAACTCCTCT (sugars k3 d10 k3, PS)
target mRNA inhibition (0.02 µM): 0% | target mRNA inhibition (0.078 µM): 9% | target mRNA inhibition (0.313 µM): 26% | target mRNA inhibition (1 µM): 64% | target mRNA inhibition (1.25 µM): 63% | target mRNA inhibition (5 µM): 83%

CTTAGGAAAGCTCATG (sugars k3 d10 k3, PS)
target mRNA inhibition (1 µM): 0%

TAGGATTAATTCCCTT (sugars k3 d10 k3, PS)
target mRNA inhibition (1 µM): 0%

AGCTAAGAGACACTTC (sugars k3 d10 k3, PS)
target mRNA inhibition (1 µM): 41%

CTCTATAAAATCAATC (sugars k3 d10 k3, PS)
target mRNA inhibition (1 µM): 0%

CAGATTATTATGTGAT (sugars k3 d10 k3, PS)
target mRNA inhibition (1 µM): 51%

AATGCTACTTGAACAG (sugars kkdddddddddkekek, PS)
target mRNA inhibition (1 µM): 39%

CATAATAATAGCTCTA (sugars k3 d10 k3, PS)
target mRNA inhibition (1 µM): 41%

CTCTAAATACCCTTGG (sugars k3 d10 k3, PS)
target mRNA inhibition (1 µM): 7%

ATTATGAGGATCTGGA (sugars k3 d10 k3, PS)
target mRNA inhibition (1 µM): 49%

AGAACCAATATGCTCT (sugars k3 d10 k3, PS)
target mRNA inhibition (1 µM): 38%

GAGACATGAGGTTTTG (sugars k3 d9 k3 e1, PS)
target mRNA inhibition (1 µM): 61%

GATCCTATATACATCC (sugars k3 d10 k3, PS)
target mRNA inhibition (1 µM): 49%

TAATGAATCATGATTG (sugars k3 d10 k3, PS)
target mRNA inhibition (1 µM): 2%

CCTATTTGTAATATTG (sugars k3 d10 k3, PS)
target mRNA inhibition (1 µM): 0%

GGTTGAGATAAAGCTG (sugars k3 d9 k3 e1, PS)
target mRNA inhibition (1 µM): 67%

GTCCTTGTGTAGTCCT (sugars k3 d10 k3, PS)
target mRNA inhibition (1 µM): 62%

ACTACATGACCTGGGT (sugars k3 d10 k3, PS)
target mRNA inhibition (1 µM): 54%

AAGAGCTGGTAAAGGT (sugars k3 d10 k3, PS)
target mRNA inhibition (1 µM): 47%

TATTAGAAGTCAGCCC (sugars kkdddddddddkekek, PS)
target mRNA inhibition (1 µM): 36%

GTTTACTCACTTCTGG (sugars k3 d10 k3, PS)
target mRNA inhibition (1 µM): 29%

TATGUAATAGCCAGTA (sugars k3 d1 m1 d8 k3, PS)
target mRNA inhibition (1 µM): 43%

GGCTACTTTCAAACCT (sugars k3 d10 k3, PS)
target mRNA inhibition (1 µM): 54%

CGCAACAGTTTAGATT (sugars k3 d10 k3, PS)
target mRNA inhibition (1 µM): 57%

CTGTGCACTCATTCTG (sugars k3 d10 k3, PS)
target mRNA inhibition (1 µM): 51%

GTTATTCTCTTGACAA (sugars kkdddddddddkekek, PS)
target mRNA inhibition (1 µM): 27%

TGATTGAGTTCTCCAC (sugars kkdddddddddkekek, PS)
target mRNA inhibition (1 µM): 32%

CCAAAAATCAGCCACT (sugars k3 d10 k3, PS)
target mRNA inhibition (1 µM): 0%

CTTGATGTAGTGGGAG (sugars k3 d9 k3 e1, PS)
target mRNA inhibition (1 µM): 62%

GATATGTCAATACTCC (sugars k3 d10 k3, PS)
target mRNA inhibition (1 µM): 59%

CAAAAGACTTTGAGAC (sugars k3 d1 m1 d8 k3, PS)
target mRNA inhibition (1 µM): 25%

ACTACAAGAGGTTATT (sugars k3 d10 k3, PS)
target mRNA inhibition (1 µM): 46%

GAAACTTGATCTCTTA (sugars k3 d9 k3 e1, PS)
target mRNA inhibition (0.02 µM): 0% | target mRNA inhibition (0.078 µM): 11% | target mRNA inhibition (0.313 µM): 60% | target mRNA inhibition (1 µM): 79% | target mRNA inhibition (1.25 µM): 82% | target mRNA inhibition (5 µM): 90%

GAGACATGAGGTTTTG (sugars k3 d10 k3, PS)
target mRNA inhibition (0.02 µM): 0% | target mRNA inhibition (0.078 µM): 0% | target mRNA inhibition (0.313 µM): 22% | target mRNA inhibition (1 µM): 77% | target mRNA inhibition (1.25 µM): 65% | target mRNA inhibition (5 µM): 88%

TTGAACAGTCTTAAAC (sugars k3 d1 m1 d8 k3, PS)
target mRNA inhibition (1 µM): 11%

CATTCGGCTAGGCGCG (sugars k3 d10 k3, PS)
target mRNA inhibition (1 µM): 46%

AGTAACTTTATTAACG (sugars k3 d10 k3, PS)
target mRNA inhibition (1 µM): 12%

CTAGUGCCAAACCAAT (sugars k3 d1 m1 d8 k3, PS)
target mRNA inhibition (1 µM): 45%

AGTAATTGCTATAGTA (sugars k3 d10 k3, PS)
target mRNA inhibition (1 µM): 48%

TCAAGACATTCTAGCC (sugars k3 d10 k3, PS)
target mRNA inhibition (1 µM): 79%

TGATTACAGCATCAAG (sugars k3 d10 k3, PS)
target mRNA inhibition (1 µM): 69%

AAGGCTTATGAAGTTA (sugars k3 d10 k3, PS)
target mRNA inhibition (1 µM): 61%

ACACTAATTTAGTCAA (sugars k3 d10 k3, PS)
target mRNA inhibition (1 µM): 16%

AATTGATACACCAATG (sugars kkdddddddddkekek, PS)
target mRNA inhibition (1 µM): 50%

ACAGTAAAATTATGCC (sugars k3 d9 k3 e1, PS)
target mRNA inhibition (1 µM): 62%

ATTAGAAGTCAGCCCA (sugars k3 d10 k3, PS)
target mRNA inhibition (1 µM): 42%

TGCTGCTAGTGCCAAA (sugars k3 d1 m1 d8 k3, PS)
target mRNA inhibition (1 µM): 50%

TAAGAGTCAGTATCCT (sugars k3 d10 k3, PS)
target mRNA inhibition (1 µM): 52%

CAGACTTCTTACGACT (sugars k3 d10 k3, PS)
target mRNA inhibition (1 µM): 33%

TTTCATAGCTCACTTA (sugars k3 d10 k3, PS)
target mRNA inhibition (1 µM): 16%

AGAGGATAGTCCATGC (sugars kkdddddddddkekek, PS)
target mRNA inhibition (1 µM): 70%

AATATCAGCCATCTAG (sugars k3 d10 k3, PS)
target mRNA inhibition (1 µM): 24%

AACCTTCCCTGTGTAA (sugars k3 d10 k3, PS)
target mRNA inhibition (1 µM): 38%

TGCTCCATAATAATAG (sugars k3 d10 k3, PS)
target mRNA inhibition (1 µM): 35%

ATTACATATCAATGCC (sugars k3 d10 k3, PS)
target mRNA inhibition (1 µM): 36%

GCTGAGAGAGTATTTC (sugars k3 d10 k3, PS)
target mRNA inhibition (1 µM): 51%

GATGTAGTGGGAGTCG (sugars k3 d10 k3, PS)
target mRNA inhibition (1 µM): 67%

GATGGTAAGGAGTAGT (sugars k3 d10 k3, PS)
target mRNA inhibition (1 µM): 28%

AGTTATTCTCTTGACA (sugars k3 d10 k3, PS)
target mRNA inhibition (1 µM): 48%

CCAACGCAACAGTTTA (sugars k3 d10 k3, PS)
target mRNA inhibition (1 µM): 77%

ATTTTTAATACGACTT (sugars k3 d10 k3, PS)
target mRNA inhibition (1 µM): 35%

CTTGAACAGTCTTAAA (sugars k3 d9 k3 e1, PS)
target mRNA inhibition (1 µM): 43%

CTAACCAATTATATGA (sugars k3 d10 k3, PS)
target mRNA inhibition (1 µM): 21%

CCCAAGCTACCTCCAA (sugars k3 d10 k3, PS)
target mRNA inhibition (1 µM): 15%

ATGGCTACAGATTGGA (sugars k3 d1 m1 d8 k3, PS)
target mRNA inhibition (1 µM): 44%
